According to patent US20250170248A1, “SMARCA DEGRADERS AND USES THEREOF” (Kymera Therapeutics, Inc., priority 2021, published 2025):

Tests used:
Assay type in all cases: cell-based
SMARCA2 [1] = target: T1, SMARCA2 (Homo sapiens, UniProt P51531); assay: MSD SMARCA2 degradation in A549 cell line; conditions: for Dmax: A549, A549 cells; for Dmax / DC50: 24 h; for DC50: read-out: SMARCA2 MSD A549 degradation 24 h: Average external-Abs DC50
Protocol: Example 10. MSD SMARCA2 Degradation in A549 Cell Line
Cells were seeded into 96-well plates (A549 cells: 2×10^4 cells/well/100 ul media) and incubated overnight. The next day, 200 nL compound were added into the intermediate plate with Echo (Labcyte 550) from source plate containing a 3-fold serial dilution from top concentration of 1 mM. The culture medium was changed with 8 0ul of fresh medium and 80 μL of 2× compound solution was added into the well to make a final concentration of 1000 nM, 333.3 nM, 111.1 nM, 37.04 nM, 12.35 nM, 4.115 nM, 1.372 nM, 0.457 nM, 0.152 nM and 0 nM (DMSO). The wells were mixed and then incubated for 24 hours. The media was aspirated from the cultures and 60 ul pre-chilled PIPA lysis buffer (Boston BioProducts BP-115D) with protease/phosphatase inhibitor (Roche 05892791001/Roche 04906837001) was added into the well to lyze the cells for 20 minutes at 4° C. The MSD plate (L15XA) was coated with 40 uL cell lysate and incubated at 4° C. overnight. The next day, the plate was washed three times with TBST (CST #9997S), 150 ul/well. The MSD plates was blocked with 150 ul blocking buffer per well and shaked for 1 hr at RT, 600 rpm. The blocking buffer was 3% Blocker A (MSD, R93BA-4) in TBST. The MSD plate was washed three times with 150 uL/well of TBST and 25 ul/well of detection antibody (Rabbit anti-SMARCA2/BRM antibody, 100 μg/mL, ab223735) was added at final concentration of 1 μg/mL diluted in 1% Blocking buffer and shaken for 1 hour at RT, 600 rpm. The MSD plate was washed three times with 150 ul/well of TBST and 25 ul/well of SULFO-TAG anti-rabbit antibody (MSD, R32AB-1) was added at final concentration of 1 μg/ml diluted in 1% Blocking buffer and shaken for 1 hour at RT, 600 rpm. The MSD plate was washed three times with 150 uL/well of TBST and 150 ul/well of 2× MSD reading buffer diluted from 4× (MSD, R92TC-2) with water was added. Lastly, the MSD instrument was read.
The letter codes for SMARCA2 degradation potency (DC50) include: A (<10 nM), B (10-50 nM), C (>50-100 nM), and D (>100 nM). The letter codes for the percentage of SMARCA degradation after 24 hours (Dmax %) include: A (>90% degradation), B (>70-90% degradation), C (50-70% degradation), and D (<50% degradation).

SMARCA2 [2] = target: T1, SMARCA2; assay: SMARCA2 Western blot degradation in MV4-11 cells; set-up: SMARCA2/SMARCA4 protein degradation selectivity in MV4-11 cells; endogenous in cells; host or cells: MV4-11; conditions: for Dmax: MV4-11, MV4-11 cells, read-out: SMARCA2 MSD MV411 degradation 24 h: average Dmax %; for DC50: read-out: SMARCA2 MSD MV411 degradation 24 h: Mean external-Abs DC50; for Selectivity in MV411: SMARCA2/4 selectivity
SMARCA4 = target: T2, SMARCA4 (Homo sapiens, UniProt P51532); assay: SMARCA4 Western blot degradation in MV4-11 cells; conditions: for Dmax: MV4-11, MV4-11 cells, read-out: SMARCA4 MSD MV411 degradation 24 h: average Dmax %; for Dmax / DC50: 24 h; for DC50: read-out: SMARCA4 MSD MV411 degradation 24 h: Mean external-Abs DC50
T2 construct: SMARCA2/SMARCA4 protein degradation selectivity in MV4-11 cells; endogenous in cells; host or cells: MV4-11
Summary of the method: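 Protein levels quantified by LI-COR Western blot (beta-actin loading control) in RIPA lysates of MV4-11 cells after 24 h compound exposure. Degradation reported as DC50, Dmax % at 24 h and SMARCA2 vs SMARCA4 selectivity, each binned into letter codes.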

T2 sequence (P51532 whole entry): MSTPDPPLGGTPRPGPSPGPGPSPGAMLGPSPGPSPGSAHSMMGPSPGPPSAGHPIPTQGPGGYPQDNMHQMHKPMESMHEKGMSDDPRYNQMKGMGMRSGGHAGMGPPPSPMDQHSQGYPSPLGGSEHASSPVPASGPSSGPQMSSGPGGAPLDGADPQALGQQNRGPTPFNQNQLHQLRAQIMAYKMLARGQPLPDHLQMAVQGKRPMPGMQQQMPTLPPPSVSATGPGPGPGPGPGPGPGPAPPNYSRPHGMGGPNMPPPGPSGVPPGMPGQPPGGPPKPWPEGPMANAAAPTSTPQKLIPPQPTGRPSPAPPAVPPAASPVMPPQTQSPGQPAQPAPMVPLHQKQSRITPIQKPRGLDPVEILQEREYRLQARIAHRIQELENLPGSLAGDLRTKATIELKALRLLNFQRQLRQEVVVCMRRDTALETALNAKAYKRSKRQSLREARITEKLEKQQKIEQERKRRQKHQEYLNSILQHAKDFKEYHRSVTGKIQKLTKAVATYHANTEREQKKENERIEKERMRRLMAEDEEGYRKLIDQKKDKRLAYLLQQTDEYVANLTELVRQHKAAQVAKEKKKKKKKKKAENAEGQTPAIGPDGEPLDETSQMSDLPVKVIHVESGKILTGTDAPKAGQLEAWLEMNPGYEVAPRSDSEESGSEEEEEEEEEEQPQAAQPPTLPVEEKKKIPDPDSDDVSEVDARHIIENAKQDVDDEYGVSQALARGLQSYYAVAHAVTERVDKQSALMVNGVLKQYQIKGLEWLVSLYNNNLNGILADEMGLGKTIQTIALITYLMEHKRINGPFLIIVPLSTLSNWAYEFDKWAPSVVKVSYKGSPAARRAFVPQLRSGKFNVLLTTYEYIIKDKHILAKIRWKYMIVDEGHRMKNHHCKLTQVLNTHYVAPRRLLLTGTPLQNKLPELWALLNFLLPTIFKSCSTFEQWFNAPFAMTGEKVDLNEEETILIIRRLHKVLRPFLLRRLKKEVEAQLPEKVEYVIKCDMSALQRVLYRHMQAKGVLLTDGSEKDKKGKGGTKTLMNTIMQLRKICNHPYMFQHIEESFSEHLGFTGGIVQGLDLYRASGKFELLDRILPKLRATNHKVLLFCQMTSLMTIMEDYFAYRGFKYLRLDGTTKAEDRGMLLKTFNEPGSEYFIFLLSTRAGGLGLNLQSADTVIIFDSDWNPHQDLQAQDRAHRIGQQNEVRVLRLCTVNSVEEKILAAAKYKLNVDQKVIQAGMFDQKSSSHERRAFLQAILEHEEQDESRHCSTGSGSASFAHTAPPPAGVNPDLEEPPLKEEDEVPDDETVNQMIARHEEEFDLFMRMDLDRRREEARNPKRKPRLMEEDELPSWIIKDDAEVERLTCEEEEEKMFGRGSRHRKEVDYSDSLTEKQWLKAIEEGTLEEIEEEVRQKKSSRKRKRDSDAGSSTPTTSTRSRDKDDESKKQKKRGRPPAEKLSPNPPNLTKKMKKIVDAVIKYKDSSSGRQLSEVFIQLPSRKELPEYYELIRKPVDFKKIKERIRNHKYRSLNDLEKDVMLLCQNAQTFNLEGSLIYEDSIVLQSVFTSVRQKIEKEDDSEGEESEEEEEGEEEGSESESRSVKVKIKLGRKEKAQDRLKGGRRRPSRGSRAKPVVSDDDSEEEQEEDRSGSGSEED
T1 sequence (P51531 whole entry): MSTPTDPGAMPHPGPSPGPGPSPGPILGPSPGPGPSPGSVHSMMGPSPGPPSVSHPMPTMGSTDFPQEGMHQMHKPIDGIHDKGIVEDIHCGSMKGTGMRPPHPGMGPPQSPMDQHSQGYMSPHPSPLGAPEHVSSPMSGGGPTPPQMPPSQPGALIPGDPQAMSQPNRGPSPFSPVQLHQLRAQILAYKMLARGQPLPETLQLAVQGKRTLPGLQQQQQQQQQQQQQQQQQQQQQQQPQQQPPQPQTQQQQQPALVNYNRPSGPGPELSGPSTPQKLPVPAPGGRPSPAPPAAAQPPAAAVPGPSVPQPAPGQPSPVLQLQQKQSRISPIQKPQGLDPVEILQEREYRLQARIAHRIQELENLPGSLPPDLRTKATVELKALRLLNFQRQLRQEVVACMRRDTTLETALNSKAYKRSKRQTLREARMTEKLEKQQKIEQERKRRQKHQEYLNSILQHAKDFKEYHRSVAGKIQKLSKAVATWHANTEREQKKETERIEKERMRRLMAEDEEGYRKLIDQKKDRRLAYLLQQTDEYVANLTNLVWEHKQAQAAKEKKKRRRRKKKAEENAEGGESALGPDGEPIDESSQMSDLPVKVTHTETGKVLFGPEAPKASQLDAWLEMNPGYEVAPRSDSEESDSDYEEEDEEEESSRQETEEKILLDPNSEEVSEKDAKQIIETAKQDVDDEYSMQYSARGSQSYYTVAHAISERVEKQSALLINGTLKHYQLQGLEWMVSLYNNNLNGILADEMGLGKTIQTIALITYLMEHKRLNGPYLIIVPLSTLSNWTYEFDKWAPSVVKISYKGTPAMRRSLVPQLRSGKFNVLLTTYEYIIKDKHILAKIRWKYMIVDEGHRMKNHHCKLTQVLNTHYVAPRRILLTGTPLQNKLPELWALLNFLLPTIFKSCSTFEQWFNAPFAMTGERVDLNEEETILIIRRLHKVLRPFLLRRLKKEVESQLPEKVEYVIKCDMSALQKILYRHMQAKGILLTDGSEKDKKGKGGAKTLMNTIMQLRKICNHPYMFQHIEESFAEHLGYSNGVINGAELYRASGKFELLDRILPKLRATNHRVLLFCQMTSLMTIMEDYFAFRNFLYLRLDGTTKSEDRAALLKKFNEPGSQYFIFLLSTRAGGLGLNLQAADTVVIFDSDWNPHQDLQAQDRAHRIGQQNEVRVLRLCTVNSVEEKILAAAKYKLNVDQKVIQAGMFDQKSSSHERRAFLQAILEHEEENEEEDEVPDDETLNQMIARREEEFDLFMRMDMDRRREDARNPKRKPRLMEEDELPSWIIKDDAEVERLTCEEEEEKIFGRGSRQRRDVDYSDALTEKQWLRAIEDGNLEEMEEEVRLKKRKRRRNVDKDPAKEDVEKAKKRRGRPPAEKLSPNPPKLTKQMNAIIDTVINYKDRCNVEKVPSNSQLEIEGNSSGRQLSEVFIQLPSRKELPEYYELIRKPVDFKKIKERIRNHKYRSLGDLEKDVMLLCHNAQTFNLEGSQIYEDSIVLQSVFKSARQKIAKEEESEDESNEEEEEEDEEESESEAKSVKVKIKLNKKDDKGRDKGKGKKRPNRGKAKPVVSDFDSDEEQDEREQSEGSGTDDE

Row | Compound | Dmax (SMARCA2 [1]) [%] | DC50 (SMARCA2 [1]; A549 cells) [nM] | Dmax (SMARCA2 [2]; 24 h) [%] | DC50 (SMARCA2 [2]; MV4-11 cells, 24 h) [nM] | Selectivity in MV411 (SMARCA2 [2]; MV4-11 cells) | Dmax (SMARCA4) [%] | DC50 (SMARCA4; MV4-11 cells) [nM] | SMARCA2 MSD A549 degradation 24 h: Average Dmax % (SMARCA2 [1]; A549 cells) | SMARCA2 MSD MV411 degradation 24 h: average Dmax % (SMARCA2 [2]; MV4-11 cells, 24 h) | SMARCA4 MSD MV411 degradation 24 h: average Dmax % (SMARCA4; MV4-11 cells)
1 | C#Cc1ccc(CNC(=O)[C@@H]2C[C@@H](O)CN2C(=O)[C@@H](NC(=O)N2CCN(CC3CCN(c4cnc(N5CCN6c7cc(-c8ccccc8O)nnc7NC[C@H]6C5)nc4)CC3)CC2)C(C)(C)C)cc1 [I-163] | > 90 | 10 to 50 | 70 to 90 | < 1 | B (B (>100-500 fold)) | 50 to 70 | > 100 |  |  | 
2 | C#Cc1ccc(C2(NC(=O)[C@@H]3C[C@@H](O)CN3C(=O)[C@@H](NC(=O)[C@H]3CC4(C3)C[C@H](N3CCC(N5CCC(N6CCN7c8cc(-c9ccccc9O)nnc8NC[C@H]7C6)CC5)CC3)C4)C(C)(C)C)CC2)cc1 (single isomer, unassigned) [I-225] |  | > 100 |  | 1 to 10 | B (B (>100-500 fold)) |  | > 100 | A (A (>90% degradation)) | B (B (>70-90% degradation)) | D (D (<50% degradation))
3 | C#Cc1ccc(CNC(=O)[C@@H]2C[C@@H](O)CN2C(=O)[C@@H](NC(=O)N2CCN(C[C@@H]3CCN(c4cnc(N5CCc6[nH]c7nnc(-c8ccccc8O)cc7c6[C@H]5C)nc4)C3)CC2)C(C)(C)C)cc1 (single isomer, unassigned) [I-161] | > 90 | > 100 | 50 to 70 | 10 to 100 | C (C (10-100 fold)) | 50 to 70 | > 100 |  |  | 
4 | C#Cc1ccc(CNC(=O)[C@@H]2C[C@@H](O)CN2C(=O)[C@H](NC(=O)N2CC3(CC(N4CCC(c5cnc(N6CCc7[nH]c8nnc(-c9ccccc9O)cc8c7[C@H]6C)nc5)CC4)C3)C2)C(C)(C)CCN2CCOCC2)cc1 (single isomer, unassigned) [I-337] | > 90 | > 100 | 70 to 90 | 10 to 100 | B (B (>100-500 fold)) | < 50 | > 100 |  |  | 
5 | C#Cc1ccc(CNC(=O)[C@@H]2C[C@@H](O)CN2C(=O)[C@@H](NC(=O)C2CCN(C[C@H]3CC[C@H](N4CCc5[nH]c6nnc(-c7ccccc7O)cc6c5[C@H]4C)CC3)CC2)C(C)(C)C)cc1 (single isomer, unassigned) [I-202] | > 90 | > 100 | 70 to 90 | 1 to 10 | C (C (10-100 fold)) | 50 to 70 | > 100 |  |  | 
6 | Cc1ncsc1-c1ccc(CNC(=O)[C@@H]2C[C@@H](O)CN2C(=O)[C@@H](NC(=O)N2CC3(CC(N4CCN(c5cnc(N6CCc7[nH]c8nnc(-c9ccccc9O)cc8c7[C@H]6C)nc5)CC4)C3)C2)C(C)(C)C)cc1 [I-82] | > 90 | < 10 | > 90 | 1 to 10 | C (C (10-100 fold)) | 70 to 90 | 10 to 100 |  |  | 
7 | C#Cc1ccc([C@H](C)NC(=O)[C@@H]2C[C@@H](O)CN2C(=O)[C@H](c2cc(OCCN3CCC(N4CCC(N5CCC(CN6CCN7c8cc(-c9ccccc9O)nnc8NC[C@H]7C6)CC5)CC4)CC3)no2)C(C)C)cc1 (single isomer, unassigned) [I-333] | > 90 | 10 to 50 | > 90 | < 1 | C (C (10-100 fold)) | 70 to 90 | 10 to 100 |  |  | 
8 | C#Cc1ccc(CNC(=O)[C@@H]2C[C@@H](O)CN2C(=O)[C@H](NC(=O)[C@H]2CCC3(CC2)C[C@H](N2CCC(c4cnc(N5CCN6c7cc(-c8ccccc8O)nnc7NC[C@H]6C5)nc4)CC2)C3)C(C)(C)CCO)cc1 (single isomer, unassigned) [I-248] | < 50 | > 100 | < 50 | > 100 | D (D (<10 fold)) | < 50 | > 100 |  |  | 
9 | Cc1ncsc1-c1ccc(CNC(=O)[C@@H]2C[C@@H](O)CN2C(=O)[C@@H](NC(=O)[C@H]2CCC3(CC2)C[C@H](N2CCC(c4ccc(N5CCN6c7cc(-c8ccccc8O)nnc7NC[C@H]6C5)nc4)CC2)C3)C(C)(C)C)cc1 (stereo partly drawn) [I-148] | > 90 | 50 to 100 | 70 to 90 | 10 to 100 | B (B (>100-500 fold)) | < 50 | > 100 |  |  | 
10 | CC#Cc1ccc(CNC(=O)[C@@H]2C[C@@H](O)CN2C(=O)[C@@H](NC(=O)N2CC3(CC(N4CCC(c5cnc(N6CCc7[nH]c8nnc(-c9ccccc9O)cc8c7[C@H]6C)nc5)CC4)C3)C2)C(C)(C)C)c(OC)c1 [I-271] | > 90 | 50 to 100 | 70 to 90 | 10 to 100 | C (C (10-100 fold)) | < 50 | > 100 |  |  | 
11 | C#Cc1ccc(CNC(=O)[C@@H]2C[C@@H](O)CN2C(=O)[C@@H](NC(=O)[C@H]2CCC3(CC2)C[C@H](N2CCC(N4CCC(N5CCN6c7cc(-c8ccccc8O)nnc7NC[C@H]6C5)CC4)CC2)C3)C(C)(C)C)c(Cl)c1 (single isomer, unassigned) [I-221] | > 90 | > 100 | 50 to 70 | 10 to 100 | C (C (10-100 fold)) | < 50 | > 100 |  |  | 
12 | C#Cc1ccc([C@H](C)NC(=O)[C@@H]2C[C@@H](O)CN2C(=O)[C@@H](NC(=O)N2CC3(CC(N4CCC(c5cnc(N6CCc7[nH]c8nnc(-c9ccccc9O)cc8c7[C@H]6C)nc5)CC4)C3)C2)C(C)(C)C)c(O)c1 [I-282] | > 90 | < 10 | 70 to 90 | 1 to 10 | C (C (10-100 fold)) | 70 to 90 | > 100 |  |  | 
13 | C#Cc1ccc(CNC(=O)[C@@H]2C[C@@H](O)CN2C(=O)[C@@H](NC(=O)N2CC3(CC(N4CCC(c5cnc(N6CCc7[nH]c8nnc(-c9ccccc9O)cc8c7[C@H]6C)nc5)CC4)C3)C2)C(C)(C)CCOCC(=O)O)cc1 (single isomer, unassigned) [I-262] | 50 to 70 | > 100 | 70 to 90 | 10 to 100 | C (C (10-100 fold)) | 50 to 70 | > 100 |  |  | 
14 | Cc1ncsc1-c1ccc(CNC(=O)[C@@H]2C[C@@H](O)CN2C(=O)C(c2cc(N3CC4(CC(N5CCC(c6cnc(N7CCc8[nH]c9nnc(-c%10ccccc%10O)cc9c8[C@H]7C)nc6)CC5)C4)C3)no2)C(C)C)cc1 (single isomer, unassigned) [I-10] | > 90 | 10 to 50 | > 90 | < 1 | D (D (<10 fold)) | > 90 | 1 to 10 |  |  | 
15 | C#Cc1cc(O)c(CNC(=O)[C@@H]2C[C@@H](O)CN2C(=O)[C@@H](NC(=O)N2CC3(CC(N4CCC(c5cnc(N6CCc7[nH]c8nnc(-c9ccccc9O)cc8c7[C@H]6C)nc5)CC4)C3)C2)C(C)(C)C)c(Cl)c1 [I-281] | < 50 | > 100 | < 50 | > 100 | D (D (<10 fold)) | < 50 | > 100 |  |  | 
